Reference: US20250101041A1, “POSITIVE ALLOSTERIC MODULATORS OF THE MUSCARINIC ACETYLCHOLINE RECEPTOR M4” (Vanderbilt University, priority 2022, published 2025)

Target: T1, human mAChR M4 (Homo sapiens, UniProt P08173)
T1 construct: expressed in transfected cells; host or cells: CHO-K1 (American Type Culture Collection), stably expressing hM4 and Gqi5
T1 sequence (P08173 1-479): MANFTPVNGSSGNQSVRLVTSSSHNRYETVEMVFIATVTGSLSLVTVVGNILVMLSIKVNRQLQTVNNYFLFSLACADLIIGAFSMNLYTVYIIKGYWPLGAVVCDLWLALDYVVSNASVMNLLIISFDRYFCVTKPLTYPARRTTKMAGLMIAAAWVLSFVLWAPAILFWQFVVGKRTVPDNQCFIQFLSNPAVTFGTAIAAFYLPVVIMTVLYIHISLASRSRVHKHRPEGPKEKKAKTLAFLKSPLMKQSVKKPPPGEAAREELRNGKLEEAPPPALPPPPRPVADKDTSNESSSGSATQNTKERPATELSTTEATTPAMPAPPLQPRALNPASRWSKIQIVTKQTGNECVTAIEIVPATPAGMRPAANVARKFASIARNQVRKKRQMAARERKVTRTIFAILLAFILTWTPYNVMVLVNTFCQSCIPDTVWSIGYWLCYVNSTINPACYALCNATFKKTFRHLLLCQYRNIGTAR
Assay: mAChR M4 cell-based functional assay: calcium mobilization (Fluo-4, FDSS), potentiation of EC20 acetylcholine response in hM4-Gqi5 CHO-K1 cells
Conditions: human M4; for Emax at 30 µM: CHO-K1, % ACh maximum at 30 μM; for EC50: potentiation of EC20 acetylcholine response, calcium mobilization
How it was run: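 CHO-K1 cells stably co-expressing human M4 and chimeric Gqi5, loaded with Fluo-4 AM (50 min, 37 °C). Compounds in 11-point 1:3 series added first; EC20 acetylcholine added at 144 s and again at 230 s. Calcium read on FDSS at 1 Hz; EC50 and Emax from four-parameter logistic fit of potentiated EC20 response.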

Emax at 30 µM [%] | EC50 [nM] | SMILES
86 | 284 | Cc1cc(=O)n2nc(N3CCc4ncc(-c5ccncc5)cc4C3)c(C)cc2n1 [Compound 1-240, 2,8-dimethyl-7-(3-(pyridin-4-yl)-7,8-dihydro-1,6-naphthyridin-6(5H)-yl)-4H-pyrimido[1,2-b]pyridazin-4-one]
70 | 735 | COc1cc(-c2cnc3c(c2)CN(c2nn4c(=O)ccnc4cc2C)CC3)c(Cl)cn1 [Compound 1-57, 7-(3-(5-chloro-2-methoxypyridin-4-yl)-7,8-dihydro-1,6-naphthyridin-6(5H)-yl)-8-methyl-4H-pyrimido[1,2-b]pyridazin-4-one]
88 | 131 | Cc1c(N2CCc3ncc(-c4cnn(C)c4C)cc3C2)nn2c(=O)ccnc2c1C [Compound 1-338, 7-(3-(1,5-dimethyl-1H-pyrazol-4-yl)-7,8-dihydro-1,6-naphthyridin-6(5H)-yl)-8,9-dimethyl-4H-pyrimido[1,2-b]pyridazin-4-one]
85 | 805 | Cc1cc(=O)n2nc(N3CCc4ncc(-c5cnn(C6COC6)c5)cc4C3)c(C)c(C)c2n1 [Compound 1-179, 2,8,9-trimethyl-7-(3-(1-(oxetan-3-yl)-1H-pyrazol-4-yl)-7,8-dihydro-1,6-naphthyridin-6(5H)-yl)-4H-pyrimido[1,2-b]pyridazin-4-one]
95 | 51 | Cc1cc2nc(C(F)F)cc(=O)n2nc1N1CCc2ncc(N3CCOC(C)(C)C3)cc2C1 [Compound 2-24, 2-(difluoromethyl)-7-(3-(2,2-dimethylmorpholino)-7,8-dihydro-1,6-naphthyridin-6(5H)-yl)-8-methyl-4H-pyrimido[1,2-b]pyridazin-4-one]
78 | 1480 | Cc1c(N2CCc3ncc(N4CCCS4(=O)=O)cc3C2)nn2c(=O)ccnc2c1C [Compound 2-146, 7-(3-(1,1-dioxidoisothiazolidin-2-yl)-7,8-dihydro-1,6-naphthyridin-6(5H)-yl)-8,9-dimethyl-4H-pyrimido[1,2-b]pyridazin-4-one]
78 | 1060 | Cc1cc2nccc(=O)n2nc1N1CCc2ncc(-c3cnc(Cl)cc3C(F)F)cc2C1 [Compound 1-329, 7-(3-(6-chloro-4-(difluoromethyl)pyridin-3-yl)-7,8-dihydro-1,6-naphthyridin-6(5H)-yl)-8-methyl-4H-pyrimido[1,2-b]pyridazin-4-one]
82 | 178 | Cc1cc2nccc(=O)n2nc1N1CCc2ncc(-c3ccsc3C#N)cc2C1 [Compound 1-410, 3-(6-(8-methyl-4-oxo-4H-pyrimido[1,2-b]pyridazin-7-yl)-5,6,7,8-tetrahydro-1,6-naphthyridin-3-yl)thiophene-2-carbonitrile]
84 | 311 | Cc1cc(=O)n2nc(N3CCc4ncc(-c5cnn6ccccc56)cc4C3)c(C)cc2n1 [Compound 1-288, 2,8-dimethyl-7-(3-(pyrazolo[1,5-a]pyridin-3-yl)-7,8-dihydro-1,6-naphthyridin-6(5H)-yl)-4H-pyrimido[1,2-b] pyridazin-4-one]
102 | 178 | Cc1c(N2CCc3ncc(C(F)(F)F)cc3C2)nn2c(=O)cc(C(C)C)nc2c1C [Compound 1-107, 2-isopropyl-8,9-dimethyl-7-(3-(trifluoromethyl)-7,8-dihydro-1,6-naphthyridin-6(5H)-yl)-4H-pyrimido[1,2-b]pyridazin-4-one]
86 | 74 | Cc1cscc1-c1cnc2c(c1)CN(c1nn3c(=O)ccnc3cc1C)CC2 [Compound 1-394, 8-methyl-7-(3-(4-methylthiophen-3-yl)-7,8-dihydro-1,6-naphthyridin-6(5H)-yl)-4H-pyrimido[1,2-b]pyridazin-4-one]
74 | 285 | Cc1ccc(-c2cnc3c(c2)CN(c2nn4c(=O)cc(C(=O)NCc5cncs5)nc4cc2C)CC3)cn1 [Compound 1-77, 8-Methyl-7-(3-(6-methylpyridin-3-yl)-7,8-dihydro-1,6-naphthyridin-6(5H)-yl)-4-oxo-N-(thiazol-5-ylmethyl)-4H-pyrimido[1,2-b]pyridazine-2-carboxamide]
63 | 4380 | Cc1c(N2CCc3ncc(N4CC(C)(C)OC4=O)cc3C2)nn2c(=O)ccnc2c1C [Compound 2-150, 3-(6-(8,9-dimethyl-4-oxo-4H-pyrimido[1,2-b]pyridazin-7-yl)-5,6,7,8-tetrahydro-1,6-naphthyridin-3-yl)-5,5-dimethyloxazolidin-2-one]
76 | 339 | Cc1cc(=O)n2nc(N3CCc4ncc(-c5ccc(F)cc5F)cc4C3)c(C)cc2n1 [Compound 1-257, 7-(3-(2,4-difluorophenyl)-7,8-dihydro-1,6-naphthyridin-6(5H)-yl)-2,8-dimethyl-4H-pyrimido[1,2-b]pyridazin-4-one]
72 | 663 | COc1ccccc1-c1cnc2c(c1)CN(c1nn3c(=O)ccnc3c(C)c1C)CC2 [Compound 1-344, 7-(3-(2-methoxyphenyl)-7,8-dihydro-1,6-naphthyridin-6(5H)-yl)-8,9-dimethyl-4H-pyrimido[1,2-b]pyridazin-4-one]
87 | 190 | Cc1cc(=O)n2nc(N3CCc4ncc(-c5cc(F)ccc5C)cc4C3)c(C)c(C)c2n1 [Compound 1-138, 7-(3-(5-fluoro-2-methylphenyl)-7,8-dihydro-1,6-naphthyridin-6(5H)-yl)-2,8,9-trimethyl-4H-pyrimido[1,2-b]pyridazin-4-one]
98 | 1580 | Cc1c(N2CCc3ncc(N4CCOC4=O)cc3C2)nn2c(=O)ccnc2c1C [Compound 2-144, 3-(6-(8,9-dimethyl-4-oxo-4H-pyrimido[1,2-b]pyridazin-7-yl)-5,6,7,8-tetrahydro-1,6-naphthyridin-3-yl)oxazolidin-2-one]
96 | 71 | Cc1ccc(-c2cnc3c(c2)CN(c2nn4c(=O)ccnc4c(C)c2C)CC3)cn1 [Compound 1-61, 8,9-Dimethyl-7-(3-(6-methylpyridin-3-yl)-7,8-dihydro-1,6-naphthyridin-6(5H)-yl)-4H-pyrimido[1,2-b]pyridazin-4-one]
74 | 511 | Cc1c(N2CCc3ncc(-c4cnn(C5CCCCO5)c4)cc3C2)nn2c(=O)ccnc2c1C (stereo not shown) [Compound 1-150, 8,9-dimethyl-7-(3-(1-(tetrahydro-2H-pyran-2-yl)-1H-pyrazol-4-yl)-7,8-dihydro-1,6-naphthyridin-6(5H)-yl)-4H-pyrimido[1,2-b]pyridazin-4-one]
43 | 1300 | Cc1cc(=O)n2nc(N3CCc4ncc(-c5ccccc5C(C)C)cc4C3)c(C)cc2n1 [Compound 1-230, 7-(3-(2-isopropylphenyl)-7,8-dihydro-1,6-naphthyridin-6(5H)-yl)-2,8-dimethyl-4H-pyrimido[1,2-b]pyridazin-4-one]
82 | 450 | Cc1c(N2CCc3ncc(-c4ccc(Cl)nc4Cl)cc3C2)nn2c(=O)cc(C(F)F)nc2c1C [Compound 1-174, 7-(3-(2,6-dichloropyridin-3-yl)-7,8-dihydro-1,6-naphthyridin-6(5H)-yl)-2-(difluoromethyl)-8,9-dimethyl-4H-pyrimido[1,2-b]pyridazin-4-one]
87 | 1600 | Cc1cc(=O)n2nc(N3CCc4ncc(-c5cc(F)ccc5F)cc4C3)c(C)cc2n1 [Compound 1-236, 7-(3-(2,5-difluorophenyl)-7,8-dihydro-1,6-naphthyridin-6(5H)-yl)-2,8-dimethyl-4H-pyrimido[1,2-b]pyridazin-4-one]
83 | 93 | Cc1ccc(F)cc1-c1cnc2c(c1)CN(c1nn3c(=O)ccnc3c(C)c1C)CC2 [Compound 1-194, 7-(3-(5-fluoro-2-methylphenyl)-7,8-dihydro-1,6-naphthyridin-6(5H)-yl)-8,9-dimethyl-4H-pyrimido[1,2-b]pyridazin-4-one]
80 | 1020 | Cc1cc(=O)n2nc(N3CCc4ncc(-c5cc(F)nc(F)c5)cc4C3)c(C)c(C)c2n1 [Compound 1-246, 7-(3-(2,6-difluoropyridin-4-yl)-7,8-dihydro-1,6-naphthyridin-6(5H)-yl)-2,8,9-trimethyl-4H-pyrimido[1,2-b]pyridazin-4-one]
59 | 3310 | Cc1cc2nccc(=O)n2nc1N1CCc2ncc(-c3cccnn3)cc2C1 [Compound 1-352, 8-methyl-7-(3-(pyridazin-3-yl)-7,8-dihydro-1,6-naphthyridin-6(5H)-yl)-4H-pyrimido[1,2-b]pyridazin-4-one]
83 | 27 | Cc1cc2nccc(=O)n2nc1N1CCc2ncc(Nc3ccnc(C)c3F)cc2C1 [Compound 2-153, 7-(3-((3-fluoro-2-methylpyridin-4-yl)amino)-7,8-dihydro-1,6-naphthyridin-6(5H)-yl)-8-methyl-4H-pyrimido[1,2-b]pyridazin-4-one]
